Laboratory results: patent US20260159500A1, “KINESIN KIF18A INHIBITOR AND USE THEREOF” (SHANGHAI APEIRON THERAPEUTICS COMPANY LIMITED, priority 2022, published 2026)
Like-named read-outs stand apart in the source and are kept apart here. One block for each compound: values may come before it.

What was measured:
[1] = molecular target: T1, Human KIF18A (amino acid sequence 1-417) (Homo sapiens, UniProt Q8NI77); test: Enzymatic activity test (ADP-Glo, microtubule-stimulated KIF18A ATPase); type: biochemical; conditions: 60 μg/mL microtubules, 25 μM ATP, 2.5 nM KIF18A protein, 120 min at ambient temperature, read-out: KIF18A_nM
T1 construct: purchased Viva Biotech (Shanghai) Ltd
T1 sequence (Q8NI77 1-417): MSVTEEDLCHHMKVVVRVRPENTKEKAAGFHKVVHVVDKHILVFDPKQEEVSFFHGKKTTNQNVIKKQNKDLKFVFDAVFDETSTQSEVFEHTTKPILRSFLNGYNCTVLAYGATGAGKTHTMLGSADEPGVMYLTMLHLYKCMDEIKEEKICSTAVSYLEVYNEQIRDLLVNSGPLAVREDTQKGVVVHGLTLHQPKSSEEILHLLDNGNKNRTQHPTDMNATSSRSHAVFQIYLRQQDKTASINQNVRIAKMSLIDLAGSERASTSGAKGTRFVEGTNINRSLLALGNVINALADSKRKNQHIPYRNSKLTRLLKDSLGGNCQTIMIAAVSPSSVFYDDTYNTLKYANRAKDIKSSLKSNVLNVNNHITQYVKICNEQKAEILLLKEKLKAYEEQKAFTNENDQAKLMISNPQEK
Description: Human KIF18A (amino acid sequence 1-417) was purchased from Viva Biotech (Shanghai) Ltd.; the ADP-Glo™ protein kinase kit was acquired from Promega, USA; tubulin was sourced from Cytoskeleton, USA; and the 384-well assay plate and Envision multifunctional microplate reader were obtained from PerkinElmer, USA.
Dissolve the compound powder in DMSO to prepare a stock solution of 10 mM. Then perform gradient dilution for the compounds in the microplate to achieve a final concentration of 0-10 μM. Then, add 2.5 μL each of tubulin, compound, ATP, and KIF18A protein to the microplate in sequence for reaction at ambient temperature for 120 min. The final concentrations in the enzyme reaction are 60 μg/mL for microtubules, 25 μM for ATP, and 2.5 nM for KIF18A protein. After the enzyme reaction, add 10 μL of ADP-GLO reaction reagent to each well and incubate at ambient temperature for 30 min. After that, add 20 μL of detection reagent to each well and incubate at ambient temperature for 30 min in the dark. Finally, perform chemiluminescence detection using the PerkinElmer Envision.

OVCAR3 cells = test: Cell proliferation activity test in OVCAR3 cells (CyQUANT Direct); type: cell-based; conditions: 3 days incubation, CyQUANT fluorescence detection, read-out: OVCAR-3_IC50_nM
Description: OVCAR3 cells were purchased from Nanjing Cobioer Biosciences Co., Ltd. RPMI-1640 medium, fetal bovine serum, and the CyQUANT Direct Cell Proliferation Assay kit were purchased from Thermo Fisher Scientific, USA; 96-well cell culture plates were sourced from Corning, USA.
Culture OVCAR3 cells with RPMI-1640 medium containing 10% fetal bovine serum and incubate them in a 5% CO2 incubator at 37° C. Only cells in the logarithmic growth phase can be used for the test.
Inoculate OVCAR3 cells into a 96-well cell culture plate at 90 μL per well and incubate overnight in a 5% CO2 incubator at 37° C. Dissolve the compound powder in DMSO to prepare a stock solution of 10 mM. Then perform gradient dilution for the compounds in the microplate to achieve a final concentration of 0-10 μM. Add 10 μL of cell culture medium containing compounds to each well to make the final DMSO content 0.2%. Incubate the cell plates in a 5% CO2 incubator at 37° C. for 3 days. Add 100 μL of CyQUANT detection reagent to each well, react at 37° C. for 60 min, and perform fluorescence detection using the PerkinElmer Envision.

HT29 cells = test: CyQuant cell proliferation activity test in HT29 cells; type: cell-based; conditions: Homo sapiens, HT-29, 72 h, 2000 cells per well, 3 days incubation, IC50 by XLFIT, read-out: HT29_IC50_nM
Description: HT29 cells were purchased from Nanjing Cobioer Biosciences Co., Ltd.; RPMI-1640 medium, fetal bovine serum, Trypsin-EDTA (0.25%), 96-well plates, and CyQuant reagents were purchased from ThermoFisher (USA); DMSO was purchased from SIGMA (USA).
Culture HT29 cells with RPMI-1640 containing 10% fetal bovine serum under the condition of 37° C. and 5% CO2. Only cells in the logarithmic growth phase can be used for the test.
Use the CyQuant reagent to detect the proliferation inhibitory activity of compounds on HT29 cells. Adjust the cell density and inoculate 100 μL per well into the 96-well plate (HT29 at 2000 cells per well), then incubate overnight under the condition of 37° C. and 5% CO2. Add compounds of various target concentrations (initial concentration of 3000 nM, 3-fold dilution, 9 concentration gradients), and make the DMSO content 0.2%. Incubate the cell plates at 37° C. and 5% CO2 for 3 days. Incubate with CyQuant reagent for 1 h, read the plate by Envision, and calculate IC50 using XLFIT.

Compound: O=C(Nc1nc(N2CCC(F)(F)CC2)cc2nccn12)c1ccc(NS(=O)(=O)CCO)cc1N1CCC2(CC1)CC2 [Example 22]
- IC50 [1]: 1940 nM

Compound: O=C(Nc1nc(N2CCC(F)(F)CC2)nc2c1COC2)c1ccc(NS(=O)(=O)CCO)cc1N1CCC2(CC1)CC2 [Example 2, N-(2-(4,4-difluoropiperidin-1-yl)-5,7-dihydrofuro[3,4-d]pyrimidin-4-yl)-4-((2-hydroxyethyl)sulfonamide)-2-(6-azaspiro[2.5]octan-6-yl)benzamide]
- IC50 (OVCAR3 cells; Homo sapiens, OVCAR-3, 72 h): 899 nM
- IC50 [1]: 251 nM

Compound: O=C(Nc1nc(N2CCC(F)(F)CC2)c2occc2c1Cl)c1ccc(NS(=O)(=O)CCO)cc1N1CCC2(CC1)CC2 [Example 33, N-(4-chloro-7-(4,4-difluoropiperidin-1-yl)furo[2,3-c]pyridin-5-yl)-4-(2-hydroxyethylsulfonamido)-2-(6-azaspiro[2.5]octan-6-yl)benzamide]
- IC50 [1]: 1640 nM

Compound: O=C(Nc1nc2c(c(N3CCC(F)(F)CC3)n1)CCC2)c1ccc(NS(=O)(=O)CCO)cc1N1CCC2(CC1)CC2 [Example 3, N-(4-(4,4-difluoropiperidin-1-yl)-6,7-dihydro-5H-cyclopenta[d]pyrimidin-2-yl)-4-((2-hydroxyethyl)sulfonamide)-2-(6-azaspiro[2.5]oct-6-yl)benzamide]
- IC50 (OVCAR3 cells; Homo sapiens, OVCAR-3, 72 h): 566 nM
- IC50 [1]: 68 nM

Compound: N-(5-(4,4-difluoropiperidin-1-yl) imidazo[1,2-c]pyrimidin-7-yl)-6-((2-hydroxyethyl)sulfonamido)-4-(6-azaspiro[2.5]octan-6-yl) nicotinamide [Example 23]
- IC50 (OVCAR3 cells): > 10000 nM
- IC50 [1]: 42 nM

Compound: O=C(Nc1cc2nccn2c(N2CCC(F)(F)CC2)n1)c1ccc(NS(=O)(=O)CCO)cc1N1CCC2(CC1)CC2 [Example 21, N-(5-(4,4-difluoropiperidin-1-yl)imidazolo[1,2-c]pyrimidin-7-yl)-4-((2-hydroxyethyl)sulfonamide)-2-(6-azaspiro[2.5]octan-6-yl)benzamide]
- IC50 (OVCAR3 cells; Homo sapiens, OVCAR-3, 72 h): 358 nM

Compound: Cn1ccc2c(N3CCC(F)(F)CC3)nc(NC(=O)c3ccc(NS(=O)(=O)CCO)cc3N3CCC4(CC3)CC4)cc21 [Example 38]
- IC50 (HT29 cells): 126 nM
- IC50 [1]: 131 nM

Compound: O=C(Nc1cc2cccnc2c(C2CCN(CC(F)(F)F)CC2)n1)c1ccc(NS(=O)(=O)CCO)cc1N1CCC2(CC1)CC2 [Example 50, 4-(2-hydroxyethylsulfonamido)-2-(6-azaspiro[2.5]octan-6-yl)-N-(8-(1-(2,2,2-trifluoroethyl)piperidin-4-yl)-1,7-naphthyridin-6-yl)benzamide]
- IC50 [1]: 1490 nM

Compound: O=C(Nc1nc(N2CCC(F)(F)CC2)nc2c1CCC2)c1ccc(NS(=O)(=O)CCO)cc1N1CCC2(CC1)CC2 [Example 1]
- IC50 (OVCAR3 cells; Homo sapiens, OVCAR-3, 72 h): 1030 nM
- IC50 [1]: 190 nM

Compound: CC(C)(C)OC(=O)N1Cc2nc(NC(=O)c3ccc(NS(=O)(=O)CCO)cc3N3CCC4(CC3)CC4)nc(N3CCC(F)(F)CC3)c2C1 [Example 6, Tert-butyl 4-(4,4-difluoropiperidin-1-yl)-2-(4-(2-hydroxyethylsulfonamido)-2-(6-azaspiro[2.5]octan-6-yl)benzoylamino)-5H-pyrrolo[3,4-d]pyrimidine-6 (7H)-carboxylate]
- IC50 (OVCAR3 cells; Homo sapiens, OVCAR-3, 72 h): 1480 nM
- IC50 [1]: 241 nM

Other lines, results leading:

- IC50 [1]: 139 nM
Compound: CC(CO)S(=O)(=O)Nc1ccc(C(=O)Nc2cc3sc(N)nc3c(N3CCC(F)(F)CC3)c2F)c(C2=CCC3(CC2)CC3)c1 (stereo not drawn) [Example 101, N-(2-amino-4-(4,4-difluoropiperidin-1-yl)-5-fluorobenzo[d]thiazol-6-yl)-4-((2-hydroxy-1-methylethyl)sulfonamido)-2-(spiro[2.5]oct-5-en-6-yl)benzamide]

- IC50 (OVCAR3 cells; Homo sapiens, OVCAR-3, 72 h): 5.9 nM
- IC50 [1]: 255 nM
Compound: C[C@H](CO)S(=O)(=O)Nc1ccc(C(=O)Nc2cc3sc(N)nc3c(N3CCC(F)(F)CC3)c2F)c(N2CCC3(CC2)CC3)c1 [Example 94, N-[2-amino-4-(4,4-difluoropiperidin-1-yl)-5-fluoro-1,3-benzothiazol-6-yl]-2-{6-azaspiro[2.5]octan-6-yl}-4-[(2R)-1-hydroxypropane-2-sulfonamido]benzamide]

- IC50 (OVCAR3 cells; Homo sapiens, OVCAR-3, 72 h): 4.7 nM
- IC50 [1]: 242 nM
Compound: C[C@@H](CO)S(=O)(=O)Nc1ccc(C(=O)Nc2cc3sc(N)nc3c(N3CCC(F)(F)CC3)c2F)c(N2CCC3(CC2)CC3)c1 [Example 95, N-[2-amino-4-(4,4-difluoropiperidin-1-yl)-5-fluoro-1,3-benzothiazol-6-yl]-2-{6-azaspiro[2.5]octan-6-yl}-4-[(2S)-1-hydroxypropane-2-sulfonamido]benzamide]

- IC50 [1]: 150 nM
Compound: CC(CO)S(=O)(=O)Nc1ccc(C(=O)Nc2cc3cccnc3c(N3[C@H](C)COC[C@H]3C)n2)c(N2CCC3(CC2)CC3)c1 (stereo partly drawn) [Example 102, 2-{6-Azaspiro[2.5]octan-6-yl}-N-[8-((3R,5R)-3,5-dimethylmorpholino)-1,7-naphthyridin-6-yl]-4-[1-hydroxypropane-2-sulfonamido]benzamide]

- IC50 (OVCAR3 cells; Homo sapiens, OVCAR-3, 72 h): 745 nM
- IC50 [1]: 848 nM
Compound: COc1ccc2cc(NC(=O)c3ccc(NS(=O)(=O)CCO)cc3N3CCC4(CC3)CC4)c(F)c(N3CCC(F)(F)CC3)c2n1 [Example 77, N-(8-(4,4-difluoropiperidin-1-yl)-7-fluoro-2-methoxyquinolin-6-yl)-4-((2-hydroxyethyl)sulfonamido)-2-(6-azaspiro[2.5]oct-6-yl)benzamide]

- IC50 [1]: > 3000 nM
Compound: O=C(Nc1cc(N2CCC(F)(F)CC2)nc2cccnc12)c1ccc(NS(=O)(=O)CCO)cc1N1CCC2(CC1)CC2 [Example 93, N-(2-(4,4-difluoropiperidin-1-yl)-1,5-naphthyridin-4-yl)-4-(2-hydroxyethylsulfonamido)-2-(6-azaspiro[2.5]octan-6-yl)benzamide]

- IC50 [1]: > 3000 nM
Compound: CP(C)(=O)c1cnc2c(N3CCC(F)(F)CC3)cc(NC(=O)c3ccc(NS(=O)(=O)CCO)cc3N3CCC4(CC3)CC4)cc2c1 [Example 85, N-(8-(4,4-difluoropiperidin-1-yl)-3-(dimethylphosphoryl)quinolin-6-yl)-4-(2-hydroxyethylsulfonamido)-2-(6-azaspiro[2.5]octan-6-yl)benzamide]

- IC50 [1]: 77 nM
Compound: O=C(Nc1cc2ncccc2c(N2CCC(F)(F)CC2)n1)c1ccc(NS(=O)(=O)CCO)cc1N1CCC2(CC1)CC2 [Example 57]

- IC50 [1]: 2260 nM
Compound: O=C(Nc1cc(N2CCC(F)(F)CC2)c2ncccc2n1)c1ccc(NS(=O)(=O)CCO)cc1N1CCC2(CC1)CC2 [Example 92, N-(4-(4,4-difluoropiperidin-1-yl)-1,5-naphthyridin-2-yl)-4-(2-hydroxyethylsulfonamido)-2-(6-azaspiro[2.5]octan-6-yl)benzamide]

- IC50 (OVCAR3 cells; Homo sapiens, OVCAR-3, 72 h): 15 nM
- IC50 [1]: 27 nM
Compound: O=C(Nc1cc(N2CCC(F)(F)CC2)c2nccnc2c1)c1ccc(NS(=O)(=O)CCO)cc1N1CCC2(CC1)CC2 [Example 83, N-(8-(4,4-difluoropiperidin-1-yl)quinoxalin-6-yl)-4-((2-hydroxyethyl)sulfonamido)-2-(6-azaspiro[2.5]octan-6-yl)benzamide]
